Measurements reported in patent US20190367516A1 (Bayer Pharma Aktiengesellschaft, priority 2015, published 2019).
Read-outs that look alike come from different tables or passages of the source.

Target: T1, human M2 receptor (Homo sapiens, UniProt P08172)
T1 sequence (P08172 1-466): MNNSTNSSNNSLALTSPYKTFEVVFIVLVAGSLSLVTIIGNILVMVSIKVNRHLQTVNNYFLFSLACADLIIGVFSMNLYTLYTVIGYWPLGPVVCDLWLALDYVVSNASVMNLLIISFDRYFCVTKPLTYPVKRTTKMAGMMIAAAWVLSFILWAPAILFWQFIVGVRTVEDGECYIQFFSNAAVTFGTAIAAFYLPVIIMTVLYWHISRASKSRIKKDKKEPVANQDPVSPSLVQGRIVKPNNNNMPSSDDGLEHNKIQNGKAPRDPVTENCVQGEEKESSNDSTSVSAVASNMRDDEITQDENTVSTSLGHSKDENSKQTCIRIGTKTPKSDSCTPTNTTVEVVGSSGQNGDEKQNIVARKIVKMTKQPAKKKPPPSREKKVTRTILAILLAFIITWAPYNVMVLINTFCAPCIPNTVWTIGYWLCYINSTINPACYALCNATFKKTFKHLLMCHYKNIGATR
Conditions: for Emax: read-out: Efficiency, boosting of the acetylcholine effect at EC20 acetylcholine concentration

[1] = Receptor activity EC50, allosteric potency at EC20 acetylcholine, M2-GIRK1/4 reporter cells, in some cases mean of two or more determinations
[2] = Receptor activity EC50, M2-GIRK1/4 activation test, acetylcholine at EC20, allosteric potency, in some cases mean values from two or more determinations

Structure (SMILES) | EC50 [1] [nM] | Emax (M2-GIRK1/4 reporter cells) [%] | EC50 [2] [nM]
O=C(Nc1c(Cl)cccc1Cl)c1cn(-c2ccc(F)cc2F)c2nc(N3C[C@@H](O)[C@@H](O)C3)ccc2c1=O [Example 651, N-(2,6-Dichlorophenyl)-1-(2,4-difluorophenyl)-7-[(3R,4S)-3,4-dihydroxypyrrolidin-1-yl]-4-oxo-1,4-dihydro-1,8-naphthyridine-3-carboxamide] | 86 | 95 | –
CC[C@@H](NC(=O)c1cn(-c2c(Cl)cccc2Cl)c2nc(N3CC4CC4(O)C3)ccc2c1=O)C(F)(F)F (stereo partly drawn) [Example 652, 1-(2,6-Dichlorophenyl)-7-[1-hydroxy-3-azabicyclo[3.1.0]hex-3-yl]-4-oxo-N-[(2R)-1,1,1-trifluorobutan-2-yl]-1,4-dihydro-1,8-naphthyridine-3-carboxamide] | 89 | 80 | –
O=C(NC12CC(C1)C2)c1cn(-c2c(F)cc(F)cc2F)c2nc(N3CCNC3=O)ccc2c1=O [Example 653, N-(Bicyclo[1.1.1]pent-1-yl)-4-oxo-7-(2-oxoimidazolidin-1-yl)-1-(2,4,6-trifluorophenyl)-1,4-dihydro-1,8-naphthyridine-3-carboxamide] | 89 | 86.5 | –
CC[C@H](NC(=O)c1cn(-c2c(Cl)cc(F)cc2Cl)c2nc(N3CCNC3=O)ccc2c1=O)C(F)(F)F [Example 654, 1-(2,6-Dichloro-4-fluorophenyl)-4-oxo-7-(2-oxoimidazolidin-1-yl)-N-[(2S)-1,1,1-trifluorobutan-2-yl]-1,4-dihydro-1,8-naphthyridine-3-carboxamide] | 93 | 84 | –
CC[C@@H](NC(=O)c1cn(-c2ccc(F)cc2F)c2nc(N3C(=O)C(C)(C)C(O)C3C)ccc2c1=O)C(F)(F)F (stereo partly drawn) [Example 657, 1-(2,4-Difluorophenyl)-7-[4-hydroxy-3,3,5-trimethyl-2-oxopyrrolidin-1-yl]-4-oxo-N-[(2R)-1,1,1-trifluorobutan-2-yl]-1,4-dihydro-1,8-naphthyridine-3-carboxamide] | 100 | 85.3 | –
CC(C)C[C@@H](NC(=O)c1cn(-c2c(F)cc(F)cc2F)c2nc(N3C[C@@H](O)CC3=O)ccc2c1=O)C(F)(F)F [Example 658, 7-[(4S)-4-Hydroxy-2-oxopyrrolidin-1-yl]-4-oxo-N-[(2R)-1,1,1-trifluoro-4-methylpentan-2-yl]-1-(2,4,6-trifluorophenyl)-1,4-dihydro-1,8-naphthyridine-3-carboxamide] | 6 | 100 | –
O=C(N[C@@H](C1CC1)C(F)(F)F)c1cn(-c2c(F)cc(F)cc2F)c2nc(N3CCC[C@@H]3CO)ccc2c1=O [Example 661, N-[(1 S)-1-Cyclopropyl-2,2,2-trifluoroethyl]-7-[(2R)-2-(hydroxymethyl)pyrrolidin-1-yl]-4-oxo-1-(2,4,6-trifluorophenyl)-1,4-dihydro-1,8-naphthyridine-3-carboxamide] | 48 | 95.5 | –
O=C(N[C@@H](C1CC1)C(F)(F)F)c1cn(-c2c(F)cc(F)cc2F)c2nc(N3CC(O)C3)ccc2c1=O [Example 662, N-[(1S)-1-Cyclopropyl-2,2,2-trifluoroethyl]-7-(3-hydroxyazetidin-1-yl)-4-oxo-1-(2,4,6-trifluorophenyl)-1,4-dihydro-1,8-naphthyridine-3-carboxamide] | 38 | 100 | –
O=C(N[C@@H](C1CC1)C(F)(F)F)c1cn(-c2c(F)cc(F)cc2F)c2nc(N3CCC(O)(CO)CC3)ccc2c1=O [Example 663, N-[(1 S)-1-Cyclopropyl-2,2,2-trifluoroethyl]-7-[4-hydroxy-4-(hydroxymethyl)piperidin-1-yl]-4-oxo-1-(2,4,6-trifluorophenyl)-1,4-dihydro-1,8-naphthyridine-3-carboxamide] | 30 | 90.5 | –

Second part, the compound after the results:

EC50 [1] [nM] | Emax (M2-GIRK1/4 reporter cells) [%] | EC50 [2] [nM] | Structure (SMILES)
97 | 98 | – | CC1(NC(=O)c2cn(-c3c(F)cc(F)cc3F)c3nc(N4C[C@@H](O)[C@H](O)C4)ccc3c2=O)CC(F)(F)C1 [Example 655, N-(3,3-Difluoro-1-methylcyclobutyl)-7-[(3R,4R)-3,4-dihydroxypyrrolidin-1-yl]-4-oxo-1-(2,4,6-trifluorophenyl)-1,4-dihydro-1,8-naphthyridine-3-carboxamide]
100 | 91.5 | – | CC1(NC(=O)c2cn(-c3c(F)cc(F)cc3F)c3nc(N4CCNC4=O)ccc3c2=O)CC(F)(F)C1 [Example 656, N-(3,3-Difluoro-1-methylcyclobutyl)-4-oxo-7-(2-oxoimidazolidin-1-yl)-1-(2,4,6-trifluorophenyl)-1,4-dihydro-1,8-naphthyridine-3-carboxamide]
102 | 84.5 | – | O=C(N[C@@H](C1CC1)C(F)(F)F)c1cn(-c2c(F)cc(F)cc2F)c2nc(N3CCC[C@H]3CO)ccc2c1=O [Example 660, N-[(1S)-1-Cyclopropyl-2,2,2-trifluoroethyl]-7-[(2S)-2-(hydroxymethyl)pyrrolidin-1-yl]-4-oxo-1-(2,4,6-trifluorophenyl)-1,4-dihydro-1,8-naphthyridine-3-carboxamide]
100 | 98 | – | O=C(N[C@@H](C1CC1)C(F)(F)F)c1cn(-c2c(F)cc(F)cc2F)c2nc(N(CCO)CCO)ccc2c1=O [Example 664, 7-[Bis(2-hydroxyethyl)amino]-N-[(1S)-1-cyclopropyl-2,2,2-trifluoroethyl]-4-oxo-1-(2,4,6-trifluorophenyl)-1,4-dihydro-1,8-naphthyridine-3-carboxamide]
73 | 92.5 | – | CC1(O)CCCN(c2ccc3c(=O)c(C(=O)N[C@@H](C4CC4)C(F)(F)F)cn(-c4c(F)cc(F)cc4F)c3n2)C1 (some centres unmarked) [Example 665, N-[(1 S)-1-Cyclopropyl-2,2,2-trifluoroethyl]-7-[3-hydroxy-3-methylpiperidin-1-yl]-4-oxo-1-(2,4,6-trifluorophenyl)-1,4-dihydro-1,8-naphthyridine-3-carboxamide]
3850 | 100 | – | O=C(N[C@@H](C1CC1)C(F)(F)F)c1cn(-c2c(F)cc(F)cc2F)c2nc(N3C[C@@H](C(=O)O)OC3=O)ccc2c1=O [Example 667, (5S)-3-[6-{[(1S)-1-Cyclopropyl-2,2,2-trifluoroethyl]carbamoyl}-5-oxo-8-(2,4,6-trifluorophenyl)-5,8-dihydro-1,8-naphthyridin-2-yl]-2-oxo-1,3-oxazolidine-5-carboxylic acid]
89 | 100 | – | NC(=O)[C@@H]1CN(c2ccc3c(=O)c(C(=O)N[C@@H](C4CC4)C(F)(F)F)cn(-c4c(F)cc(F)cc4F)c3n2)C(=O)O1 [Example 668, 7-[(5S)-5-Carbamoyl-2-oxo-1,3-oxazolidin-3-yl]-N-[(1 S)-1-cyclopropyl-2,2,2-trifluoroethyl]-4-oxo-1-(2,4,6-trifluorophenyl)-1,4-dihydro-1,8-naphthyridine-3-carboxamide]
106 | 84.9 | – | COC(=O)[C@H]1CN(c2ccc3c(=O)c(C(=O)N[C@@H](C4CC4)C(F)(F)F)cn(-c4c(F)cc(F)cc4F)c3n2)C(=O)O1 [Example 669, Methyl (5R)-3-[6-{[(1S)-1-cyclopropyl-2,2,2-trifluoroethyl]carbamoyl}-5-oxo-8-(2,4,6-trifluorophenyl)-5,8-dihydro-1,8-naphthyridin-2-yl]-2-oxo-1,3-oxazolidine-5-carboxylate]
1450 | 66.5 | – | O=C(N[C@@H](C1CC1)C(F)(F)F)c1cn(-c2c(F)cc(F)cc2F)c2nc(N3C[C@H](C(=O)O)OC3=O)ccc2c1=O [Example 670, (5R)-3-[6-{[(1S)-1-Cyclopropyl-2,2,2-trifluoroethyl]carbamoyl}-5-oxo-8-(2,4,6-trifluorophenyl)-5,8-dihydro-1,8-naphthyridin-2-yl]-2-oxo-1,3-oxazolidine-5-carboxylic acid]
100 | 94 | – | NC(=O)[C@H]1CN(c2ccc3c(=O)c(C(=O)N[C@@H](C4CC4)C(F)(F)F)cn(-c4c(F)cc(F)cc4F)c3n2)C(=O)O1 [Example 671, 7-[(5R)-5-Carbamoyl-2-oxo-1,3-oxazolidin-3-yl]-N-[(15)-1-cyclopropyl-2,2,2-trifluoroethyl]-4-oxo-1-(2,4,6-trifluorophenyl)-1,4-dihydro-1,8-naphthyridine-3-carboxamide]
– | – | 117 | CC(C)Nc1ccc2c(=O)c(C(=O)NC34CCC(CC3)CC4)cn(-c3ccc(F)cc3F)c2n1 [compound 159]
– | – | 166 | O=C(NCc1c(Cl)cccc1Cl)c1cn(-c2ccc(F)cc2F)c2nc(N3CC(O)CC3=O)ccc2c1=O (centres unmarked) [compound 183]
– | – | 156 | CC(C)(NC(=O)c1cn(-c2ccc(F)cc2F)c2nc(N3CCCS3(=O)=O)ccc2c1=O)c1c(F)cccc1F [compound 185]
